Source: PubChem BioAssay AID1959 (Broad Institute, 2009)
Active and inactive are the calls of the source.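 How the source made its calls: active means growth-inhibition EC50 no more than tenfold above the top tested dose; inconclusive means flat fit between 30% and 70% inhibition, or unreliable fit; inactive means EC50 more than tenfold above the top tested dose.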

Each compound was assayed on E. coli NEB5alpha growth, BacTiter-Glo luminescence, 4 h (assay: Escherichia coli growth inhibition, dose response, counter-screen for MEX-5/POS-1 RNA-binding inhibitor project, luminescence, NEB5alpha (AID 1959);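 further: pUC19-transformed ampicillin-resistant cells grown in LB with ampicillin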).
`Cc1cc(C)cc(N2C(=O)NC(=O)/C(=C\c3cccn3-c3ccc(Cl)cc3)C2=O)c1` was tested, and the EC50 was > 11 µM (inactive). For `COCCNC(=O)C1Nc2ccc(OC(F)(F)F)cc2C2C=CCC12` (stereo unspecified), the EC50 was > 11 µM (inactive). `COC(=O)c1[nH]c2cc(OC)c(OC)cc2c1/C=N/Nc1ccccc1` was tested, and the EC50 was > 11 µM (inactive). In the case of `COC(=O)c1ccc(C)c(-n2c(C)cc(C=O)c2C)c1`, the EC50 is reported as > 11 µM (inactive). `COc1ccc(/C=C2\CCCC(C(=O)C(F)(F)F)=C2O)cc1` was tested, and the EC50 was > 11 µM (inactive). In the case of `COC(=O)c1cc(-n2cccc2)ccc1N1CCOCC1`, the EC50 is reported as > 11 µM (inactive). For `COC(=O)c1ccc(-n2c(C)ccc2-c2ccccc2)cc1`, the EC50 was > 11 µM (inactive). `CCc1ccccc1N1C(=O)/C(=C/c2ccc(N3CCN(C)CC3)o2)C(=O)NC1=S` was tested, and the EC50 was > 11 µM (inactive). `COc1cc(C2C(C#N)=C(N)OC3=C2C(=O)CCC3)c([N+](=O)[O-])cc1OC` (stereo unspecified) was tested, and the EC50 was > 11 µM (inactive). For `CN1CCc2cc(O)cc3c2[C@H]1Cc1ccc(O)c(O)c1-3`, the EC50 was > 11 µM (inactive). In the case of `CCN(CC)CCN1C(=O)c2cccc3cc(N)cc(c23)C1=O`, the EC50 is reported as > 11 µM (inactive). With `CCOc1ccc(N2C(=O)/C(=C/c3ccco3)C(=O)NC2=S)cc1` the EC50 was > 11 µM (inactive). With `CN(C)c1ccc(/C=N/NC2=NS(=O)(=O)c3ccccc32)cc1` the EC50 was > 11 µM (inactive). With `CCCCC1=CC2=CC(=O)C(C)(OC(=O)c3ccc(Cl)nc3)C(=O)C2=CO1` (stereo unspecified) the EC50 was > 11 µM (inactive). `COc1ccc(OC)c(C(=O)c2coc3ccc(O)c(CN4CCOCC4)c23)c1` was tested, and the EC50 was > 11 µM (inactive). For `Cc1ccc(/C=C/C(=O)c2ccc(N3CCOCC3)cc2)s1`, the EC50 was > 11 µM (inactive). In the case of `CN1CCc2cccc3c2C1Cc1ccc(O)c(O)c1-3` (stereo unspecified), the EC50 is reported as > 11 µM (inactive). For `COc1ccc(C2c3cc(OC)c(OC)cc3CCN2S(C)(=O)=O)cc1OC` (stereo unspecified), the EC50 was > 11 µM (inactive). With `COc1ccc(C2=CC3=CC(=O)C(C)(O)C(=O)C3=CO2)cc1` (stereo unspecified) the EC50 was > 11 µM (inactive). `CC1(C)CC(=O)C2=C(C1)OC(N)=C(C#N)C2c1cc2c(cc1[N+](=O)[O-])OCO2` (stereo unspecified) was tested, and the EC50 was > 11 µM (inactive). `CNC(=O)c1c(NC(=O)c2ccc(S(=O)(=O)N3CCCc4ccccc43)cc2)sc2c1CCN(C)C2` was tested, and the EC50 was > 11 µM (inactive). With `CN(C)c1ccc(N=Cc2c(O)n(CCC3=CCCCC3)c(=O)[nH]c2=O)cc1` the EC50 was > 11 µM (inactive). `COc1ccccc1C1C(C(C)=O)=C(C)N=c2s/c(=C\c3cc(OC)c(OC)c(OC)c3)c(=O)n21` (stereo unspecified) was tested, and the EC50 was > 11 µM (inactive). For `O=C(CC1Nc2ccccc2NC1=O)c1ccccc1` (stereo unspecified), the EC50 was > 11 µM (inactive). With `C[n+]1c(-c2ccccc2)c2cc(N)ccc2c2ccc(N)cc21` the EC50 was > 11 µM (inactive). In the case of `CN1C(=O)c2ccccc2NC(=O)[C@]12O[C@@H]2c1cccc(O)c1`, the EC50 is reported as > 11 µM (inactive). With `CCOC(=O)Cc1nc2ccccc2n(CC#N)c1=O` the EC50 was > 11 µM (inactive). `COc1ccc(OC)c(-n2c(O)c(/C=C3\C=Nc4ccccc43)c(=O)[nH]c2=O)c1` was tested, and the EC50 was > 11 µM (inactive). For `Cc1ccc(O)c(-c2cc(C(=O)Nc3ccc(S(=O)(=O)Nc4nccc(C)n4)cc3)[nH]n2)c1`, the EC50 was > 11 µM (inactive). With `O=C(NNc1ccccc1)C(=O)NNS(=O)(=O)c1ccc([N+](=O)[O-])cc1` the EC50 was > 11 µM (inactive). For `NC(=O)c1snnc1-c1ccccc1`, the EC50 was > 11 µM (inactive). With `Cc1ccc(C(=O)Oc2oc(-c3ccccc3)nc2C=Nc2ccc(N(C)C)cc2)cc1` the EC50 was > 11 µM (inactive). For `O=C(O)CCC(=O)NCc1ccc2[nH]c3c(c2c1)CCCC3`, the EC50 was > 11 µM (inactive). For `Cc1ccc(NC(=O)CSc2nnc(N)s2)cc1S(=O)(=O)N1CCOCC1`, the EC50 was > 11 µM (inactive). In the case of `O=C(N/N=C/c1c(O)n(CCc2ccccc2)c(=O)[nH]c1=O)c1ccccc1O`, the EC50 is reported as > 11 µM (inactive). With `Cc1ncc(/C=C2\C(=O)Nc3ccccc32)[nH]1` the EC50 was > 11 µM (inactive). For `CC1C2(C)OC(=N)C(C#N)(C(C)O2)C1(C#N)C#N` (stereo unspecified), the EC50 was > 11 µM (inactive). For `COC(=O)CCCC1=CC2=CC(=O)C(C)(OC(=O)C3CCCC3)C(=O)C2=CO1` (stereo unspecified), the EC50 was > 11 µM (inactive). For `COc1ccc(C(=O)NNC(=O)c2cnccn2)cc1[N+](=O)[O-]`, the EC50 was > 11 µM (inactive). With `COc1cc(C2C(C#N)=C(N)OC3=C2C(=O)CC(C)(C)C3)cc([N+](=O)[O-])c1O` (stereo unspecified) the EC50 was > 11 µM (inactive). In the case of `N#CC1=C(N)OC2=C(C(=O)CCC2)C1c1ccc(OC(=O)N2CCOCC2)cc1` (stereo unspecified), the EC50 is reported as > 11 µM (inactive). In the case of `O=C1C(=Cc2cccn2-c2ccccc2)C(=O)c2ccccc21`, the EC50 is reported as > 11 µM (inactive). `COc1ccc(C2=CC3=C(Br)C(=O)C(C)(OC(=O)c4cccs4)C(=O)C3=CO2)cc1` (stereo unspecified) was tested, and the EC50 was > 11 µM (inactive). For `Cc1cc(O)c(C(C)C)cc1N=C1CSC(=O)N1`, the EC50 was > 11 µM (inactive). With `CN1C(=O)NC(=O)/C(=C\c2ccc([N+](=O)[O-])o2)C1=O` the EC50 was > 11 µM (inactive). `Oc1ccc(N=Nc2ccccc2-c2nn[nH]n2)c(O)c1` was tested, and the EC50 was > 11 µM (inactive). In the case of `C/C(=N\Nc1ncnc2sc(C)c(C)c12)c1ccccn1`, the EC50 is reported as > 11 µM (inactive). With `N=c1n(CC(=O)c2ccc([N+](=O)[O-])cc2)c2ccccc2n1Cc1ccc(Cl)cc1` the EC50 was > 11 µM (inactive). `C=CCn1c(=S)[nH]c2nc3c(cc2c1=O)COC(C)(C)C3` was tested, and the EC50 was > 11 µM (inactive). For `O=C(/C=C/Nc1ccc([N+](=O)[O-])cc1)c1ccc(Br)cc1`, the EC50 was > 11 µM (inactive). In the case of `COc1cc2c3nnc(-c4ccccc4)c-3cn(Cc3ccc(F)cc3)c2cc1OC`, the EC50 is reported as > 11 µM (inactive). For `Cc1cc(=O)[nH]c(N/N=C/c2ccc(O)c(O)c2)n1`, the EC50 was > 11 µM (inactive). `CCOC(CNC(=O)CCc1c(C)nc2nc(C)nn2c1C)OCC` was tested, and the EC50 was > 11 µM (inactive). `COCCCNC(=O)CCC(=O)NNc1nc2ccccc2c2nc(C)nn12` was tested, and the EC50 was > 11 µM (inactive). With `CCOC(=O)/C=c1\s/c(=C\c2ccc(C#N)cc2)c(=O)n1CC(=O)NCc1ccco1` the EC50 was > 11 µM (inactive). For `CC1(C)CC(=O)C2=C(C1)OC(N)=C(C#N)C2c1cccc(OC(=O)c2ccco2)c1` (stereo unspecified), the EC50 was > 11 µM (inactive). In the case of `Cc1ccc(/C=C(\C#N)C(=O)Nc2c(C)cccc2C)s1`, the EC50 is reported as > 11 µM (inactive). For `O=[N+]([O-])c1ccc(Nc2ccccc2O)c2nonc12`, the EC50 was > 11 µM (inactive). In the case of `COc1ccc(NC(=O)c2sc3nc(-c4cccnc4)ccc3c2N)cc1OC`, the EC50 is reported as > 11 µM (inactive). With `Nc1ccc2nc(CCCO)[nH]c2c1` the EC50 was > 11 µM (inactive). `CNCc1ccccc1Sc1ccc(O)c(O)c1` was tested, and the EC50 was > 11 µM (inactive). For `CCOC(=O)c1cc(-c2ccccc2)sc1NC(=S)Nc1cc(C)ccn1`, the EC50 was > 11 µM (inactive). With `Cc1cccc(-n2c(C)cc(C=C3C(=O)c4ccccc4C3=O)c2C)c1` the EC50 was > 11 µM (inactive). With `CC(C)CNC(=O)C1Nc2ccc(OC(F)(F)F)cc2C2C=CCC12` (stereo unspecified) the EC50 was > 11 µM (inactive). `CC(=Nc1ccc(Br)cc1)c1sc2ccccc2c1O` was tested, and the EC50 was > 11 µM (inactive). In the case of `CN(C)c1ccc2nc3ccc(=[N+](C)C)cc-3sc2c1`, the EC50 is reported as > 11 µM (inactive). With `COc1ccc(P2(=O)Nc3ccccc3N2)cc1` the EC50 was > 11 µM (inactive). For `Cc1ccc(C(=O)C2=C(O)C(=O)N(Cc3ccco3)C2c2ccc(N(C)C)cc2)o1` (stereo unspecified), the EC50 was > 11 µM (inactive). `C=CCN1C(=O)NC(=O)/C(=C/c2ccc(OC)c(CSc3ccccn3)c2)C1=O` was tested, and the EC50 was > 11 µM (inactive). For `CCCCn1c(O)c(/C=C2\C=Nc3ccccc32)c(=O)[nH]c1=O`, the EC50 was > 11 µM (inactive). With `COc1ccc2c3c([nH]c2c1)C1CC2C(CC(O)C(OC)C2C(=O)O)CN1CC3` (stereo unspecified) the EC50 was > 11 µM (inactive). In the case of `CC(C)OC(=O)CC(=O)c1sc2nc3c(cc2c1N)CN(C)CC3`, the EC50 is reported as > 11 µM (inactive). With `CCC(C)[C@@H](N)C(=O)N/N=C/c1cccc2nccnc12` (stereo partly specified) the EC50 was > 11 µM (inactive). For `Cc1cc(/C=C(/C#N)c2nc3ccccc3[nH]2)c(C)n1-c1ccccc1C(=O)O`, the EC50 was > 11 µM (inactive). `CCN(CC)C(=O)CNc1ccc(C(F)(F)F)cc1[N+](=O)[O-]` was tested, and the EC50 was > 11 µM (inactive). In the case of `O=C1NC(=O)N(c2ccccc2)C(=O)/C1=C\c1ccc2c3c(cccc13)CC2`, the EC50 is reported as > 11 µM (inactive). For `NC1=CC(=O)c2cccc3cccc1c23`, the EC50 was > 11 µM (inactive). In the case of `Cc1c(/C=N/Nc2ccc(F)cc2)c(O)n(C)c(=O)c1C#N`, the EC50 is reported as > 11 µM (inactive). With `O=C(Cn1cc(C=C2C(=O)NC(=O)NC2=O)c2ccccc21)NCC1CCCO1` (stereo unspecified) the EC50 was > 11 µM (inactive). For `CCN(CC)c1ccc(/C=C(/C#N)c2nc3ccccc3[nH]2)c(OC(C)C)c1`, the EC50 was > 11 µM (inactive). `CC(=O)c1ccc(C(=O)Nc2sc3c(c2C(N)=O)CCN(Cc2ccccc2)C3)cc1` was tested, and the EC50 was > 11 µM (inactive). `C=Cc1c(C)c2cc3[nH]c(cc4nc(cc5nc(cc1[nH]2)C(C)=C5CCC(=O)O)C(CCC(=O)O)=C4C)c(C)c3C=C` was tested, and the EC50 was > 11 µM (inactive). In the case of `O=C(O)C1Nc2c(cccc2C(F)(F)F)C2C=CCC12` (stereo unspecified), the EC50 is reported as > 11 µM (inactive). With `O=C(NC(=S)NNS(=O)(=O)c1ccccc1)c1cccnc1` the EC50 was > 11 µM (inactive). For `COc1[nH]c(/N=C/c2ccccc2)c(C#N)c1C#N`, the EC50 was > 11 µM (inactive). With `N#CC(C#N)=Cc1ccc(-c2ccc(S(=O)(=O)N=C(N)N)cc2)o1` the EC50 was > 11 µM (inactive). For `CO[C@H]1O[C@H](CBr)[C@@H](OC(=O)c2ccccc2)[C@H](O)[C@H]1O`, the EC50 was > 11 µM (inactive). In the case of `O=C1C2CC=C(Cl)CC2C(=O)N1CCCCCCN1C(=O)C2CC=C(Cl)CC2C1=O` (stereo unspecified), the EC50 is reported as > 11 µM (inactive). In the case of `COC(=O)CCCC1=CC2=CC(=O)C(C)(OC(=O)c3cnc4ccccc4n3)C(=O)C2=CO1` (stereo unspecified), the EC50 is reported as > 11 µM (inactive). `NC(N)=NS(=O)(=O)c1ccc(NC(=S)NC(=O)/C=C/c2cccs2)cc1` was tested, and the EC50 was > 11 µM (inactive). `CC(=O)N(C)c1ccc(N=Nc2c(C)[nH]n(C(N)=S)c2=O)cc1` was tested, and the EC50 was > 11 µM (inactive). In the case of `Cn1c(O)c(C=NCCCCCCCCCCC(=O)O)c(=O)n(C)c1=O`, the EC50 is reported as > 11 µM (inactive). With `COc1ccc(/C=C/c2ccc3c(Br)ccc(O)c3n2)cc1` the EC50 was > 11 µM (inactive). For `O=C(c1ccco1)N1CCc2ccccc21`, the EC50 was > 11 µM (inactive). `O=c1[nH]c(=S)[nH]c2c1C(c1ccc(Br)cc1)c1c([nH]c(=S)[nH]c1=O)O2` was tested, and the EC50 was > 11 µM (inactive). For `CCOCCCNc1nc2nc3ccc(C)cn3c(=O)c2cc1C(=O)NCC1CCCO1` (stereo unspecified), the EC50 was > 11 µM (inactive).
